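Tested at 5 concentrations; 48 h exposure; 96-well plates; endpoints linearly interpolated, else capped at highest concentration. At the GI50, growth is halved. TGI denotes the concentration required for complete inhibition of growth.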
Legend:
Test in all cases: NCI-60 cell line screen, 48 h
DU-145 prostate = test system: DU-145 prostate
HCT-15 colon = test system: HCT-15 colon
UACC-62 melanoma = test system: UACC-62 melanoma
KM12 colon = test system: KM12 colon
SK-MEL-28 melanoma = test system: SK-MEL-28 melanoma
786-0 renal = test system: 786-0 renal
SW-620 colon = test system: SW-620 colon
HL-60(TB) leukemia = test system: HL-60(TB) leukemia
SN12C renal = test system: SN12C renal
HCC-2998 colon = test system: HCC-2998 colon
OVCAR-8 ovarian = test system: OVCAR-8 ovarian
EKVX NSCLC = test system: EKVX NSCLC
OVCAR-5 ovarian = test system: OVCAR-5 ovarian
NCI/ADR-RES ovarian = test system: NCI/ADR-RES ovarian
NCI-H460 lung = test system: NCI-H460 lung
SF-539 CNS = test system: SF-539 CNS
ACHN renal = test system: ACHN renal
SK-MEL-5 melanoma = test system: SK-MEL-5 melanoma
MDA-MB-231 breast = test system: MDA-MB-231 breast
UO-31 renal = test system: UO-31 renal
MDA-MB-435 = test system: MDA-MB-435
IGROV1 ovarian = test system: IGROV1 ovarian
MCF7 breast = test system: MCF7 breast
SR leukemia = test system: SR leukemia
RPMI-8226 leukemia = test system: RPMI-8226 leukemia
NCI-H226 lung = test system: NCI-H226 lung
RXF 393 renal = test system: RXF 393 renal
M14 melanoma = test system: M14 melanoma
COLO 205 colon = test system: COLO 205 colon
OVCAR-3 ovarian = test system: OVCAR-3 ovarian
OVCAR-4 ovarian = test system: OVCAR-4 ovarian
SF-268 CNS = test system: SF-268 CNS
SK-OV-3 ovarian = test system: SK-OV-3 ovarian
UACC-257 melanoma = test system: UACC-257 melanoma
SNB-19 CNS = test system: SNB-19 CNS
HOP-92 NSCLC = test system: HOP-92 NSCLC
HCT-116 colon = test system: HCT-116 colon
K-562 leukemia = test system: K-562 leukemia
MALME-3M melanoma = test system: MALME-3M melanoma
BT-549 breast = test system: BT-549 breast
A549 NSCLC = test system: A549 NSCLC
NCI-H522 lung = test system: NCI-H522 lung
MDA-MB-468 breast = test system: MDA-MB-468 breast
SK-MEL-2 melanoma = test system: SK-MEL-2 melanoma
HT29 colon = test system: HT29 colon
SNB-75 CNS = test system: SNB-75 CNS
LOX IMVI melanoma = test system: LOX IMVI melanoma
PC-3 prostate = test system: PC-3 prostate
CAKI-1 renal = test system: CAKI-1 renal
SF-295 CNS = test system: SF-295 CNS
NCI-H23 lung = test system: NCI-H23 lung
U251 CNS = test system: U251 CNS
T-47D breast = test system: T-47D breast
A498 renal = test system: A498 renal
HOP-62 NSCLC = test system: HOP-62 NSCLC
CCRF-CEM leukemia = test system: CCRF-CEM leukemia
TK-10 renal = test system: TK-10 renal
HS 578T breast = test system: HS 578T breast
MOLT-4 leukemia = test system: MOLT-4 leukemia

COc1ccc(NC(=O)CSc2nnc(-c3ccc(-c4nc5ccc(Cl)cc5[nH]4)cc3)o2)cc1
GI50 (DU-145 prostate): 2.29 µM
TGI (DU-145 prostate): 5.61 µM
GI50 (HCT-15 colon): 7.77 µM
TGI (HCT-15 colon): 84.2 µM
GI50 (UACC-62 melanoma): 3.81 µM
TGI (UACC-62 melanoma): 15.3 µM
GI50 (KM12 colon): 5.16 µM
TGI (KM12 colon): 25.7 µM
GI50 (SK-MEL-28 melanoma): 1.96 µM
TGI (SK-MEL-28 melanoma): 5.79 µM
GI50 (786-0 renal): 1.74 µM
TGI (786-0 renal): 3.56 µM
GI50 (SW-620 colon): 4.54 µM
TGI (SW-620 colon): 20.6 µM
GI50 (HL-60(TB) leukemia): > 100 µM
TGI (HL-60(TB) leukemia): > 100 µM
GI50 (SN12C renal): 3.27 µM
TGI (SN12C renal): 16.3 µM
GI50 (HCC-2998 colon): 43.5 µM
TGI (HCC-2998 colon): > 100 µM
GI50 (OVCAR-8 ovarian): 3.58 µM
TGI (OVCAR-8 ovarian): 26 µM
GI50 (EKVX NSCLC): 2.67 µM
TGI (EKVX NSCLC): 13.3 µM
GI50 (OVCAR-5 ovarian): 6.44 µM
TGI (OVCAR-5 ovarian): 22 µM
GI50 (NCI/ADR-RES ovarian): 10.2 µM
TGI (NCI/ADR-RES ovarian): 42.9 µM
GI50 (NCI-H460 lung): 1.35 µM
TGI (NCI-H460 lung): 4.16 µM
GI50 (SF-539 CNS): 1.9 µM
TGI (SF-539 CNS): 4.52 µM
GI50 (ACHN renal): 2.69 µM
TGI (ACHN renal): 11.6 µM
GI50 (SK-MEL-5 melanoma): 3.02 µM
TGI (SK-MEL-5 melanoma): 11.8 µM
GI50 (MDA-MB-231 breast): 3.77 µM
TGI (MDA-MB-231 breast): 13.8 µM
GI50 (UO-31 renal): 10.9 µM
TGI (UO-31 renal): 23.1 µM
GI50 (MDA-MB-435): 1.87 µM
TGI (MDA-MB-435): 8.03 µM
GI50 (IGROV1 ovarian): 12.4 µM
TGI (IGROV1 ovarian): 25.3 µM
GI50 (MCF7 breast): 4.39 µM
TGI (MCF7 breast): 74.2 µM
GI50 (SR leukemia): 10.3 µM
TGI (SR leukemia): > 100 µM
GI50 (RPMI-8226 leukemia): 12 µM
TGI (RPMI-8226 leukemia): > 100 µM
GI50 (NCI-H226 lung): 1.94 µM
TGI (NCI-H226 lung): 5.19 µM
GI50 (RXF 393 renal): 2.3 µM
TGI (RXF 393 renal): 5.61 µM
GI50 (M14 melanoma): 3.74 µM
TGI (M14 melanoma): 17.2 µM
GI50 (COLO 205 colon): 19 µM
TGI (COLO 205 colon): 92.1 µM
GI50 (OVCAR-3 ovarian): 3.72 µM
TGI (OVCAR-3 ovarian): 14 µM
GI50 (OVCAR-4 ovarian): 3.02 µM
TGI (OVCAR-4 ovarian): 10 µM
GI50 (SF-268 CNS): 2.22 µM
TGI (SF-268 CNS): 5.48 µM
GI50 (SK-OV-3 ovarian): 2.87 µM
TGI (SK-OV-3 ovarian): 7.61 µM
GI50 (UACC-257 melanoma): 3.83 µM
TGI (UACC-257 melanoma): 23.6 µM
GI50 (SNB-19 CNS): 2.54 µM
TGI (SNB-19 CNS): 7.59 µM
GI50 (HOP-92 NSCLC): 2.62 µM
TGI (HOP-92 NSCLC): 10.6 µM
GI50 (HCT-116 colon): 3.91 µM
TGI (HCT-116 colon): 26.7 µM
GI50 (K-562 leukemia): 2.74 µM
TGI (K-562 leukemia): > 100 µM
GI50 (MALME-3M melanoma): 1.9 µM
TGI (MALME-3M melanoma): 5.63 µM
GI50 (BT-549 breast): 2.75 µM
TGI (BT-549 breast): 6.12 µM
GI50 (A549 NSCLC): 2.44 µM
TGI (A549 NSCLC): 10.7 µM
GI50 (NCI-H522 lung): 2.11 µM
TGI (NCI-H522 lung): 8.03 µM
GI50 (MDA-MB-468 breast): 15 µM
TGI (MDA-MB-468 breast): 38.4 µM
GI50 (SK-MEL-2 melanoma): 6.96 µM
TGI (SK-MEL-2 melanoma): 25.4 µM
GI50 (HT29 colon): 4.9 µM
TGI (HT29 colon): 23.3 µM
GI50 (SNB-75 CNS): 1.42 µM
TGI (SNB-75 CNS): 3.86 µM
GI50 (LOX IMVI melanoma): 2.29 µM
TGI (LOX IMVI melanoma): 6.68 µM
GI50 (PC-3 prostate): 1.61 µM
TGI (PC-3 prostate): 4.27 µM
GI50 (CAKI-1 renal): 1.54 µM
TGI (CAKI-1 renal): 3.38 µM
GI50 (SF-295 CNS): 1.36 µM
TGI (SF-295 CNS): 4.05 µM
GI50 (NCI-H23 lung): 2.97 µM
TGI (NCI-H23 lung): 11.4 µM
GI50 (U251 CNS): 4.83 µM
TGI (U251 CNS): 16.5 µM
GI50 (T-47D breast): 14.2 µM
TGI (T-47D breast): 57.9 µM
GI50 (A498 renal): 4.26 µM
TGI (A498 renal): 16 µM
GI50 (HOP-62 NSCLC): 2.52 µM
TGI (HOP-62 NSCLC): 5.37 µM
GI50 (CCRF-CEM leukemia): 6.86 µM
TGI (CCRF-CEM leukemia): > 100 µM
GI50 (TK-10 renal): 16.5 µM
TGI (TK-10 renal): 30.1 µM
GI50 (HS 578T breast): 2.28 µM
TGI (HS 578T breast): 7.23 µM
GI50 (MOLT-4 leukemia): 6.46 µM
TGI (MOLT-4 leukemia): > 100 µM

Source: PubChem BioAssay (NCI)
